Key:
[1] = target: T1, CK1α (Homo sapiens, UniProt P48729+Q96SW2); assay: CK1α NanoBiT assay (HiBiT-tagged CSNK1A1 in HEK293 clonal line); format: cell-based; conditions: HEK293 HiBiT-CSNK1A1/LgBiT cells, 24 h incubation, luminescence
T1 construct: HEK293 clonal line with CRISPR KI HiBiT tag on CSNK1A1; host or cells: HEK293 clonal line, CRISPR HiBiT knock-in at CSNK1A1, stably expressing LgBiT
Protocol: HEK293 clonal line with CRISPR KI HiBiT tag on CSNK1A1 and stably expressing LgBiT protein was obtained from Promega (Madison, WI). Cells were plated at 5000 cells per well using Multiflo (BioTek) in 384-well white solid bottom plates (Corning, 3570BC) in […] volume in DMEM media (DMEM, high glucose, HEPES, no phenol red (ThermoFisher Scientific, 21063029)) containing 10% FBS (Corning, 35-075-CV), 1% Penicillin/Streptomycin ((ThermoFisher Scientific, 15140-122), and 0.2% Endurazine (Nano-Glo Endurazine Live Cell Substrate (Promega, N2571)). Cells were incubated for 16 hours at 37C, 5% CO2. Depending on experiment 25 or 75 nL of a compound at 10 mM were added into the plate using an Echo®650 liquid handler (Labcyte) to achieve final concentration of […] in wells. Cells were incubated at 37° C., 5% CO2 for 24 hours followed by signal was read on Pherastar FSX using “LUM plus” optic module.
Data analysis was performed using Scinamic (Scinamic, Cambridge, MA).
Luminescence response (R) was calculated by the formula: response=100*(S−N)/(P−N), where S is the signal of the well, N and P the mean negative and positive control values, respectively, of the same plate. The luminescence response was then fitted in Scinamic using a 3-parameter agonist logistic fit (hillslope=1, EC50>0, top/bottom unconstrained).
DC50 data are reported in Table 2 for compounds in Table 1. In Table 2 below, According to the code, A represents a DC50 value of ≤0.1 μM, B represents a DC50 value>0.1 μM and ≤1 μM, C represents an DC50 value>1 μM.

[2] = target: CRBN/DDB1 (Homo sapiens, UniProt Q96SW2); assay: HTRF binding assay (thalidomide probe displacement from CRBN/DDB1); conditions: CRBN/DDB1 2.5 nM, Cy5-Thalidomide 100 nM, 30 min; geometric mean; read-out: HTRF_Thali_Disp_DR—geo_IC50
Chain of CRBN/DDB1 (Q96SW2 whole entry): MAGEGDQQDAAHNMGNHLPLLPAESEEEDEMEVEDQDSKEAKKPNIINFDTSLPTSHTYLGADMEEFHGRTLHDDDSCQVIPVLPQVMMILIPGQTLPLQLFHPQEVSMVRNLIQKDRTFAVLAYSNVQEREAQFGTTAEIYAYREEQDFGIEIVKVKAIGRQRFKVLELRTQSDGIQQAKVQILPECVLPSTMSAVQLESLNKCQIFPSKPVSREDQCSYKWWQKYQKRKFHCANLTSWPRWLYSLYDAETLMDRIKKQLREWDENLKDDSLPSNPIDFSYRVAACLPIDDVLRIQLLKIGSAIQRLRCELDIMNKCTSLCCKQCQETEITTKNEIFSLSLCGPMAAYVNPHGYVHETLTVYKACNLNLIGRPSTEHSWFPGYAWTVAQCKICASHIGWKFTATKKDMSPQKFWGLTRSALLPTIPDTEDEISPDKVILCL
Chain of CRBN/DDB1 (Q16531 whole entry partner): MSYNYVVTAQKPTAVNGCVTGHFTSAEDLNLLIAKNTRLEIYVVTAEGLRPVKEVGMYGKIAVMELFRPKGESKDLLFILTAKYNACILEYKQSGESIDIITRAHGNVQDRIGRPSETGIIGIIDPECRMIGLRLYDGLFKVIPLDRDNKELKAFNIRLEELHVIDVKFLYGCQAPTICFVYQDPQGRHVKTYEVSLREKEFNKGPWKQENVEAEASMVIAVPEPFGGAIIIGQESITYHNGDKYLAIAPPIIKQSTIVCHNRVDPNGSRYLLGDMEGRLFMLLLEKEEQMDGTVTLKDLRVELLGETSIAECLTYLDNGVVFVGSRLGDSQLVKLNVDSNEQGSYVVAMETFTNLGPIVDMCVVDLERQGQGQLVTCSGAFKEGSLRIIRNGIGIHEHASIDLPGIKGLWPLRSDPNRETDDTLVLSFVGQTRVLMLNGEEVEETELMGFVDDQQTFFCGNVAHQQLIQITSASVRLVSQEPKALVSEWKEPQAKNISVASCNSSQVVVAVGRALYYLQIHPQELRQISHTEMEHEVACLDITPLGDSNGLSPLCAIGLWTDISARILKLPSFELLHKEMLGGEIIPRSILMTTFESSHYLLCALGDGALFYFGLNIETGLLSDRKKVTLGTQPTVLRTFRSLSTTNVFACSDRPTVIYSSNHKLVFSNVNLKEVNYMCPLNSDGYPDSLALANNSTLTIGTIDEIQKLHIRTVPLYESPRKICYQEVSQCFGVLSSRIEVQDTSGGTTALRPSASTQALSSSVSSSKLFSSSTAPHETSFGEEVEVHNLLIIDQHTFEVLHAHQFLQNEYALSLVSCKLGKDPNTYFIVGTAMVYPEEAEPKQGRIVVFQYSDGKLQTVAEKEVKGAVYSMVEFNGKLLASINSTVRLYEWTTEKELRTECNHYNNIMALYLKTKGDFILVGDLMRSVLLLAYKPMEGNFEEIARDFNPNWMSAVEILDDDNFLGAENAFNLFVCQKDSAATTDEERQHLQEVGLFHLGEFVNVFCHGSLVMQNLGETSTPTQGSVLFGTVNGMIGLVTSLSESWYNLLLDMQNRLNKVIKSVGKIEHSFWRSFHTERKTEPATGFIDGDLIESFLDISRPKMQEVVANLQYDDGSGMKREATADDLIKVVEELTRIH
Excerpt: Binding of test compounds to CRBN/DDB1 was monitored in an HTRF assay using 1-[5-({2-[2-(2-{[2-(2,6-dioxopiperidin-3-yl)-1,3-dioxo-2,3-dihydro-1H-isoindol-4-yl]oxy}acetamido)ethoxy]ethyl}carbamoyl)pentyl]-3,3-dimethyl-2-[(1E,3E)-5-[(2E)-1,3,3-trimethyl-5-sulfo-2,3-dihydro-1H-indol-2-ylidene]penta-1,3-dien-1-yl]-3H-indol-1-ium-5-sulfonate as a fluorescent probe. In this assay, compounds displace the fluorescently labeled thalidomide-based probe bound to CRBN and fluorescence is monitored with increasing compound concentration. Assays were conducted in Greiner white 384 well HiBase plates (Cat. No 784075-25) in 10 μL total volume. A one pot detection solution of CRBN/DDB1 (2.5 nM), anti-His Terbium Cryptate Gold (1×, PerkinElmer Cat. #: 61HI2TLB), and Cy5-Thalidomide (100 nM, Tenova Cat.: T52461) was prepared in 20 mM HEPES, 20 mM NaCl, 0.2 mM TCEP, 0.2 mM EDTA, and 0.005% Tween20 was dispensed to each assay plate. Test compounds were stored in dry, ambient temperatures at 10 mM. A 10-point, 1:3 dilution series was prepared from 10 mM stock concentrations in Echo-compatible LDV plates. 10 nL of each compound dilution series was dispensed into assays wells using an Echo 650 (Labcyte inc. USA). 10 nL of 10 mM lenalidomide (Selleckchem Cat no. S1029) was transferred into the active-control wells for the assay and 10 nL of DMSO was transferred into the negative control wells. The assay was then allowed to incubate for 30 min at ambient temperature after transferring the test compounds. Plate measurements were taken on a Pherastar FSX (BMG Labtech, Germany) using the HTRF Red filter (Ex. 337 nm, eml: 620 nm, em2: 665 nm) (Flashes: 50, Integration time: 60-400 μs, Z-height: 10 mm, Ratio-multiplier: 10,000). Analysis, HTRF ratio and IC50 values were derived using KNIME analytics (KNIME Zurich) transformation and fitting within Collaborative Drug Discovery (Collaborative Drug Discovery USA) using a 4-parameter logistic fit. HTRF ratio calculation was performed using the following formula: […]
where em665nm represents the measured emission at 665 nm upon excitation at 337 nm and em620nm the measured emission at 620 nm upon excitation at 337 nm. The 4 parameter logistic fitting model was performed using the following formula: […]
where Y represents the HTRF ratio response (as defined previously), X the compound concentration in μM, Ymin the minimum response plateau, Ymax the maximum response plateau, IC50 the concentration of agonist that gives a response half way between Ymin and Ymax and HillSlope the steepness of the family of curves. No fitting model constraints was applied on Ymin, or Ymax whilst IC50>0 and −0.5>HillSlope>−3
Ki values were derived from the geometric mean of the IC50 values using the Cheng-Prusoff transformation:
where [L] represents the concentration of fluorescent probe in μM, Kd the affinity (binding constant) of the fluorescent probe in units of μM and IC50 the concentration of agonist that gives a response halfway between Ymin and Ymax (as described in 1.2.1)
Analysis and IC50 values were derived using KNIME analytics (KNIME, Zurich) transformation and fitting within Collaborative Drug Discovery (Collaborative Drug Discovery, USA) as described in 1.2.1. Ki values were derived from the geometric mean of the IC50 values using the Cheng-Prusoff transformation as described in 2.2.2. Data was visualized in GraphPad Prism 8.1.2 (GraphPad, USA) and reported as mean and standard deviation. Microsoft Office Excel 2012 (Redmond, WA) was used for calculation of mean and standard deviation.
IC50 data are reported in Table 3 for compounds in Table 1. In Table 3 below, According to the code, A represents a IC50 value of ≤0.1 μM, B represents a IC50 value≥0.1 μM and ≤1 μM, C represents an IC50 value>1 μM.

T1 sequence (P48729 whole entry): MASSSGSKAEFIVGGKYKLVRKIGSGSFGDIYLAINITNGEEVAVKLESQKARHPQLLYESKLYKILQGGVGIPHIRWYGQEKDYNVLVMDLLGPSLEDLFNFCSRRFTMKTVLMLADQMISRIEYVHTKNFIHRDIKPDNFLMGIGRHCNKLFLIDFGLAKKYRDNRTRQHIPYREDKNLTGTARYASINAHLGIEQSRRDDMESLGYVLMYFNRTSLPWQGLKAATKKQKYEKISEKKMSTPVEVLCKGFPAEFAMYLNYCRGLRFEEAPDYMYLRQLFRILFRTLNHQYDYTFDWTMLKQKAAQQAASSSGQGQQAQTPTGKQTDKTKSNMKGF
T1 sequence (Q96SW2 whole entry): as the sequence (Q96SW2 whole entry) above
T1 sequence (Q16531 2-1140 partner limits assumed): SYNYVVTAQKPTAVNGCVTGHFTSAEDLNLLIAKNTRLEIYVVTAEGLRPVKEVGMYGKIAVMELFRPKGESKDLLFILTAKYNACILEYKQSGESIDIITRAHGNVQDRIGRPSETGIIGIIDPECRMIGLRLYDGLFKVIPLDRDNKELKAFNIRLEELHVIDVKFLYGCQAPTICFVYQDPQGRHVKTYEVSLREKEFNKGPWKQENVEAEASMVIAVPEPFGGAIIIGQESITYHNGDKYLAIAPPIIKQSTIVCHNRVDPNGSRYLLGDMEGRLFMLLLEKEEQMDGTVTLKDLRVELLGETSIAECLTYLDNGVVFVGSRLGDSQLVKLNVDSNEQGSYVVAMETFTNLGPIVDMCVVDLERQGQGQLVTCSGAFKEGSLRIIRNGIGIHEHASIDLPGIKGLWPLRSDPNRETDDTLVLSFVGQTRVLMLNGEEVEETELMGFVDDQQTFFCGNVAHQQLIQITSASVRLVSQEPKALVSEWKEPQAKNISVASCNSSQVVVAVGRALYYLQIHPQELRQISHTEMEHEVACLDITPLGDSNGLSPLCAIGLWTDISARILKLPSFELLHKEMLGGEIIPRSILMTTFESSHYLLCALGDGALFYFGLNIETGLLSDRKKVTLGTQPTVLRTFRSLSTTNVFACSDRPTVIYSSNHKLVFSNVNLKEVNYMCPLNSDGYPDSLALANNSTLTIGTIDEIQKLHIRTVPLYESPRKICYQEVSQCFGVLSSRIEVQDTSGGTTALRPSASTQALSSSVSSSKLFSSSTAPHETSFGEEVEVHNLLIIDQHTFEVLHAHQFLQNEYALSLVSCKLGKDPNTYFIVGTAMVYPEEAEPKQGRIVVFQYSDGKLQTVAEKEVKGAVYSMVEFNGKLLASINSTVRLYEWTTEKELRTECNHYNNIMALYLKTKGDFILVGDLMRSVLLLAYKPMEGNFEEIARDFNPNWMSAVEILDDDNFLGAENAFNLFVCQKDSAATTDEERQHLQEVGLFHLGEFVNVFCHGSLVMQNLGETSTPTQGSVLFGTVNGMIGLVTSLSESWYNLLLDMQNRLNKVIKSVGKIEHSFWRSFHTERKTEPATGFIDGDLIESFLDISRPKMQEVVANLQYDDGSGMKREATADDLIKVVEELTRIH

SMILES | DC50 [1] [µM] | IC50 [2] [nM]
O=C1CCC(N2Cc3cc(NC(=O)c4cnccn4)ccc3C2=O)C(=O)N1 (centres unmarked) [Compound 115, N-(2-(2,6-dioxopiperidin-3-yl)-1-oxoisoindolin-5-yl)pyrazine-2-carboxamide] | > 1 | 100 to 1000
O=C1CCC(N2Cc3cc(N4C(=O)c5ccccc5C4=O)ccc3C2=O)C(=O)N1 (centres unmarked) [Compound 116, 2′-(2,6-dioxopiperidin-3-yl)-[2,5′-biisoindoline]-1,1′,3-trione] | > 1 | 100 to 1000
O=C1CCC(N2Cc3cc(N(CC(F)(F)F)C(=O)c4ccc(Cl)cc4)ccc3C2=O)C(=O)N1 (centres unmarked) [Compound 112, 4-chloro-N-(2-(2,6-dioxopiperidin-3-yl)-1-oxoisoindolin-5-yl)-N-(2,2,2-trifluoroethyl) benzamide] | > 1 | 100 to 1000
Cc1cc(C(=O)Nc2ccc3c(c2)CN(C2CCC(=O)NC2=O)C3=O)ccn1 (centres unmarked) [Compound 138, N-(2-(2,6-dioxopiperidin-3-yl)-1-oxoisoindolin-5-yl)-2-methylisonicotinamide] | > 1 | –
Cn1ccnc1C(=O)Nc1ccc2c(c1)CN(C1CCC(=O)NC1=O)C2=O (centres unmarked) [Compound 119, N-(2-(2,6-dioxopiperidin-3-yl)-1-oxoisoindolin-5-yl)-1-methyl-1H-imidazole-2-carboxamide] | > 1 | 100 to 1000
N#Cc1ccccc1C(=O)Nc1ccc2c(c1)CN(C1CCC(=O)NC1=O)C2=O (centres unmarked) [Compound 118, 2-cyano-N-(2-(2,6-dioxopiperidin-3-yl)-1-oxoisoindolin-5-yl)benzamide] | > 1 | 100 to 1000
O=C1CCC(N2Cc3cc(NC(=O)c4cccc5c4CCCC5)ccc3C2=O)C(=O)N1 (centres unmarked) [Compound 135, N-(2-(2,6-dioxopiperidin-3-yl)-1-oxoisoindolin-5-yl)-5,6,7,8-tetrahydronaphthalene-1-carboxamide] | – | 100 to 1000
O=C1CCC(N2Cc3cc(NC(=O)C4(C(F)(F)F)CCN(c5ccccn5)C4)ccc3C2=O)C(=O)N1 (centres unmarked) [Compound 150] | 0.1 to 1 | –
COc1ccc(CC(=O)Nc2ccc3c(c2)CN(C2CCC(=O)NC2=O)C3=O)cc1 (centres unmarked) [Compound 149, N-(2-(2,6-dioxopiperidin-3-yl)-1-oxoisoindolin-5-yl)-2-(4-methoxyphenyl)acetamide] | 0.1 to 1 | –
CN(C(=O)c1ccc(Cl)cc1)c1ccc2c(c1)CN(C1CCC(=O)NC1=O)C2=O (centres unmarked) [Compound 153] | > 1 | –
O=C1CCC(N2Cc3cc(NC(=O)c4ccccc4CC(F)(F)F)ccc3C2=O)C(=O)N1 (centres unmarked) [Compound 113, N-(2-(2,6-dioxopiperidin-3-yl)-1-oxoisoindolin-5-yl)-2-(2,2,2-trifluoroethyl)benzamide] | 0.1 to 1 | –
Cc1ccc(CC(=O)Nc2ccc3c(c2)CN(C2CCC(=O)NC2=O)C3=O)cn1 (centres unmarked) [Compound 152] | > 1 | –

The next lines start with the values.

DC50 [1] [µM] | IC50 [2] [nM] | SMILES
< 0.1 | 100 to 1000 | O=C1CCC(N2Cc3cc(NC(=O)c4ccccc4C(F)(F)F)ccc3C2=O)C(=O)N1 (centres unmarked) [Compound 137, N-(2-(2,6-dioxopiperidin-3-yl)-1-oxoisoindolin-5-yl)-2-(trifluoromethyl)benzamide]
0.1 to 1 | 100 to 1000 | Cc1ccc(C(=O)Nc2ccc3c(c2)CN(C2CCC(=O)NC2=O)C3=O)cn1 (centres unmarked) [Compound 123, N-(2-(2,6-dioxopiperidin-3-yl)-1-oxoisoindolin-5-yl)-6-methylnicotinamide]
< 0.1 | 100 to 1000 | O=C1CCC(N2Cc3cc(NC(=O)c4cccc(F)c4)ccc3C2=O)C(=O)N1 (centres unmarked) [Compound 142, N-(2-(2,6-dioxopiperidin-3-yl)-1-oxoisoindolin-5-yl)-3-fluorobenzamide]
0.1 to 1 | 100 to 1000 | O=C1CCC(N2Cc3cc(NC(=O)c4ccccc4F)ccc3C2=O)C(=O)N1 (centres unmarked) [Compound 143, N-(2-(2,6-dioxopiperidin-3-yl)-1-oxoisoindolin-5-yl)-2-fluorobenzamide]
< 0.1 | 100 to 1000 | Cc1ccc(C(=O)Nc2ccc3c(c2)CN(C2CCC(=O)NC2=O)C3=O)cc1 (centres unmarked) [Compound 127, N-(2-(2,6-dioxopiperidin-3-yl)-1-oxoisoindolin-5-yl)-4-methylbenzamide]
0.1 to 1 | 100 to 1000 | O=C1CCC(N2Cc3cc(NC(=O)c4ncccc4Cl)ccc3C2=O)C(=O)N1 (centres unmarked) [Compound 103, 3-chloro-N-(2-(2,6-dioxopiperidin-3-yl)-1-oxoisoindolin-5-yl) picolinamide]
0.1 to 1 | ≤ 100 | O=C1CCC(N2Cc3cc(NC(=O)c4cccc5c4CC(=O)N5)ccc3C2=O)C(=O)N1 (centres unmarked) [Compound 124, N-(2-(2,6-dioxopiperidin-3-yl)-1-oxoisoindolin-5-yl)-2-oxoindoline-4-carboxamide]
0.1 to 1 | 100 to 1000 | O=C1CCC(N2Cc3cc(NC(=O)c4ccccn4)ccc3C2=O)C(=O)N1 (centres unmarked) [Compound 133, N-(2-(2,6-dioxopiperidin-3-yl)-1-oxoisoindolin-5-yl)]
0.1 to 1 | 100 to 1000 | Cc1ccccc1C(=O)Nc1ccc2c(c1)CN(C1CCC(=O)NC1=O)C2=O (centres unmarked) [Compound 132, N-(2-(2,6-dioxo-3-piperidyl)-1-oxo-isoindolin-5-yl)-2-methyl-benzamide]
0.1 to 1 | 100 to 1000 | CC(C)c1ccccc1C(=O)Nc1ccc2c(c1)CN(C1CCC(=O)NC1=O)C2=O (centres unmarked) [Compound 140, N-(2-(2,6-dioxopiperidin-3-yl)-1-oxoisoindolin-5-yl)-2-isopropylbenzamide]
0.1 to 1 | 100 to 1000 | COCc1c(C(=O)Nc2ccc3c(c2)CN(C2CCC(=O)NC2=O)C3=O)ncn1-c1ccccc1 (centres unmarked) [Compound 159, N-(2-(2,6-dioxopiperidin-3-yl)-1-oxoisoindolin-5-yl)-5-(methoxymethyl)-1-phenyl-1H-imidazole-4-carboxamide]
0.1 to 1 | – | O=C1CCC(N2Cc3cc(NC(=O)Cc4ccccc4)ccc3C2=O)C(=O)N1 (centres unmarked) [Compound 151]
< 0.1 | – | O=C1CCC(N2Cc3cc(NC(=O)c4cccc(Cl)c4)ccc3C2=O)C(=O)N1 (centres unmarked) [Compound 145]

From patent publication US20250115582A1, “MOLECULAR GLUE DEGRADERS AND METHODS OF USING THE SAME” (Monte Rosa Therapeutics, Inc., priority 2022, published 2025)
